Reference: patent US20240092825A1, “CERTAIN CHEMICAL ENTITIES, COMPOSITIONS, AND METHODS” (priority 2021, published 2024)
Structures can show the parent of a compound that is named as a salt.

Tests used:
[1] = Accelerated stability test of Crystalline Form I, storage at 40° C./75% RH (open); format: physicochemical; conditions: for Appearance / DSC / Purity / XRPD: 40° C./75% RH (open)
Experimental: (§1) X-ray powder diffraction (XRPD) patterns were obtained on a Bruker D8 Advance. A CuK source (=1.54179 angstrom) operating minimally at 40 kV and 40 mA scans each sample between 3 and 40 degrees 2-theta. The scanning rate is 10 degrees 2-theta per minute and the sample rotation speed is 15 revolutions per minute.
(§2) Differential scanning calorimetry analysis was carried out on a TA Instrument DSC unit (TA Q2000). Samples were heated in non-hermetic aluminum pans from ambient to 260° C. at 10° C./min.
(§3) Crystalline Form I was not changed after storage at 40° C./75% RH for 6 months, or storage at 25° C./60% RH for 36 months.

[2] = Long-term stability test of Crystalline Form I, storage at 25° C./60% RH (open); format: physicochemical; conditions: for Appearance / DSC / Purity / XRPD: 25° C./60% RH (open)
Experimental: as §1, §2, §3

## C[C@]12CC[C@H](OC(=O)N3CCNCC3)C[C@H]1CC[C@@H]1[C@@H]2CC[C@]2(C)[C@@H](c3ccc(=O)oc3)CC[C@]12O [Crystalline Form I, (3S,5R,8R,9S,10S,13R,14S,17R)-14-hydroxy-10,13-dimethyl-17-(2-oxo-2H-pyran-5-yl)hexadecahydro-1H-cyclopenta[a]phenanthren-3-yl piperazine-1-carboxylate maleate]
[1]; 0 month
  Appearance: White powder
  DSC: 233.84° ° C.
  Purity: 99.86%
  XRPD: Form I
[1]; 6 months
  Appearance: White powder
  DSC: 234.28° ° C.
  Purity: 99.91%
  XRPD: Form I
[1]; storage at 40° C./75% RH for 6 months
  Change of crystalline form after storage: not changed
[2]; 0 month
  Appearance: White powder
  DSC: 233.84° ° C.
  Purity: 99.86%
  XRPD: Form I
[2]; 12 months
  Appearance: White powder
  DSC: 234.41° ° C.
  Purity: 99.87%
  XRPD: Form I
[2]; 24 months
  Appearance: White powder
  DSC: 232.9° ° C.
  Purity: 99.91%
  XRPD: Form I
[2]; 36 months
  Appearance: White powder
  DSC: 233.6° ° C.
  Purity: 100.00%
  XRPD: Form I
[2]; storage at 25° C./60% RH for 36 months
  Change of crystalline form after storage: not changed
